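Exposure lasted 48 hours, with cells grown in 96-well plates and compounds tested at five concentrations. GI50 = concentration required for 50% inhibition of growth.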 Calls of active or inactive are those of the source. Rule as the data show it: active = GI50 up to about 1.1 µM and inactive = higher.
Columns and labels:
Assay in all cases: DTP human tumour cell line panel, 48 h
SN12C = test system: SN12C
HCT-15 = test system: HCT-15
SF-268 = test system: SF-268
NCI-H460 = test system: NCI-H460
Malme-3M = test system: Malme-3M
RPMI-8226 = test system: RPMI-8226
CCRF-CEM = test system: CCRF-CEM
U-251 = test system: U-251
A498 = test system: A498
SF-295 = test system: SF-295
SK-MEL-28 = test system: SK-MEL-28
ACHN = test system: ACHN
IGROV-1 = test system: IGROV-1
NCI-H226 = test system: NCI-H226
SW-620 = test system: SW-620
HL-60 = test system: HL-60
COLO 205 = test system: COLO 205

| Structure (SMILES) | GI50 (SN12C) | GI50 (HCT-15) [µM] | GI50 (SF-268) | GI50 (NCI-H460) | GI50 (Malme-3M) | GI50 (RPMI-8226) | GI50 (CCRF-CEM) | GI50 (U-251) | GI50 (A498) | GI50 (SF-295) | GI50 (SK-MEL-28) | GI50 (ACHN) | GI50 (IGROV-1) | GI50 (NCI-H226) | GI50 (SW-620) | GI50 (HL-60) | GI50 (COLO 205) |
| --- | --- | --- | --- | --- | --- | --- | --- | --- | --- | --- | --- | --- | --- | --- | --- | --- | --- |
| Cc1cc2nc3c(C(OC4OC(CO)C(O)C(O)C4O)C(O)CO)nn(-c4ccccc4)c3nc2cc1C (configuration not stated) | > 100 µM (inactive) | > 100 | > 100 µM (inactive) | > 100 µM (inactive) | > 100 µM (inactive) | > 100 µM (inactive) | > 100 µM (inactive) | > 100 µM (inactive) | > 100 µM (inactive) | > 100 µM (inactive) | > 100 µM (inactive) | > 100 µM (inactive) |  |  |  |  |  |
| N#C/N=C(\NCCc1c[nH]c2ccccc12)NCc1ccccc1 | 93.8 µM (inactive) | 49.4 | > 100 µM (inactive) | 26.8 µM (inactive) |  | 42.6 µM (inactive) | 29.9 µM (inactive) | 35.2 µM (inactive) |  | 36 µM (inactive) | 80.7 µM (inactive) | 25.4 µM (inactive) | > 100 µM (inactive) | 34.4 µM (inactive) | > 100 µM (inactive) | 27.5 µM (inactive) | 61 µM (inactive) |
| CSC1(C)CC2C(CC1N1CCOCC1)C2(C)C (configuration not stated) | > 100 µM (inactive) | > 100 | > 100 µM (inactive) | > 100 µM (inactive) | > 100 µM (inactive) | > 100 µM (inactive) | > 100 µM (inactive) | > 100 µM (inactive) |  | > 100 µM (inactive) | > 100 µM (inactive) | > 100 µM (inactive) | > 100 µM (inactive) | > 100 µM (inactive) |  | > 100 µM (inactive) | > 100 µM (inactive) |
| Cn1cnc([N+](=O)[O-])c1Sc1nccn1-c1ccccc1 | 42.3 µM (inactive) |  | 66.5 µM (inactive) | 41.4 µM (inactive) | 17.5 µM (inactive) | 51.3 µM (inactive) | 36.3 µM (inactive) | 49.8 µM (inactive) | > 100 µM (inactive) | > 100 µM (inactive) | 37.8 µM (inactive) | 47.6 µM (inactive) | 43.1 µM (inactive) | 33.7 µM (inactive) | 42.9 µM (inactive) |  | 33.9 µM (inactive) |
| CC(=O)Oc1cc(C)c2c(c1OC(C)=O)CC1(O2)[C@@H](C)CCC2[C@@]3(C)CC[C@H](OC(C)=O)C(C)(C)C3CC[C@]21C (some centres not stated) | 2.98 µM (inactive) | 3.53 | 3.37 µM (inactive) | 3.45 µM (inactive) | 2.86 µM (inactive) | 3.83 µM (inactive) |  | 3.33 µM (inactive) | 7.46 µM (inactive) | 5.01 µM (inactive) | 4.41 µM (inactive) | 1.67 µM (inactive) | 2.01 µM (inactive) | 11.4 µM (inactive) | 2.82 µM (inactive) |  | 1.63 µM (inactive) |
| O=C(Nc1nc2ccccc2n1Cc1ccc(Cl)cc1)NC12CC3CC(CC(C3)C1)C2 | 28.4 µM (inactive) | 71.6 | 4.12 µM (inactive) | 20.1 µM (inactive) | 19.1 µM (inactive) | 48.9 µM (inactive) | 76.7 µM (inactive) | 20.7 µM (inactive) |  | 10.9 µM (inactive) | 16 µM (inactive) | 35.7 µM (inactive) | 41 µM (inactive) | 24 µM (inactive) | 65.8 µM (inactive) | > 100 µM (inactive) | 36.2 µM (inactive) |
| O=c1c(O)cccn1C1OC(CO)C(O)C1O (configuration not stated) | > 100 µM (inactive) | > 100 | > 100 µM (inactive) | > 100 µM (inactive) | > 100 µM (inactive) | > 100 µM (inactive) | > 100 µM (inactive) | > 100 µM (inactive) | > 100 µM (inactive) |  | > 100 µM (inactive) | > 100 µM (inactive) | > 100 µM (inactive) | > 100 µM (inactive) |  |  | > 100 µM (inactive) |

Reference: ChEMBL document CHEMBL1201862, “PubChem BioAssay data set” (2004)
